Measured values published in US20110142889A1, “COMPOSITIONS AND METHODS FOR ORAL DRUG DELIVERY” (NOD Pharmaceuticals, Inc., priority 2009, published 2011).

What was measured:
[1] = estimated; cited from earlier work
[2] = colon suppository containing 25 mg sodium caprate; cited from earlier work
[3] = dog, in vivo
Experimental: The absorption of oral insulin was evaluated in beagles under somatostatin infusion at 1 μg/kg/min via an indwelling vein catheter.
Twelve beagle dogs with body weights between 8-12 kg were housed in an animal facility. The dogs were randomly divided into three groups and fasted overnight. Water was supplied ad libitum. Somatostatin infusion (1 μg/kg/min) was performed using a balloon infusion pump via an indwelling vein catheter, and tablets were fed with 10 ml water at 4 hr after initiation of somatostatin infusion. Food was restricted during the study, and blood samples were collected at various time points in heparinized tubes.
Blood glucose concentration was measured with a glucometer and matching testing strips (Johnson & Johnson, OneTouch®), and serum samples of 0.5-0.6 ml were recovered after blood samples were collected and centrifuged at 3000 rpm for 10 min. The samples were frozen at −20° C., and insulin concentration was measured by ELISA (Linco).

blood glucose = assay: effect of oral insulin on blood glucose in somatostatin infused dogs (Example 9); type: in vivo, beagle dogs; conditions: somatostatin infusion 1 μg/kg/min; FIG. 8B
Text: Water was supplied ad libitum.

CCCCCCCCCC(=O)[O-].[Na+] [sodium caprate]
concentration needed to achieve a permeation enhancing effect [1]: 10 to 13 mM

CC1(C)S[C@@H]2[C@H](NC(=O)[C@H](N)c3ccccc3)C(=O)N2[C@H]1C(=O)O [ampicillin]
increase of area under the serum concentration-time curve (AUC) compared to ampicillin alone [2]: 2.3 fold | increase of maximum serum concentration (Cmax) compared to ampicillin alone [2]: 2.6 fold

insulin [Insulin injection]
effect on serum insulin concentration [3]: large increase in insulin concentration | effect on blood glucose (blood glucose): rapid and profound reduction of glucose levels
